Among the test systems are M14 melanoma; NCI-H460 lung; DU-145 prostate; UO-31 renal; NCI-H226 lung; SNB-19 CNS; OVCAR-5 ovarian; NCI/ADR-RES ovarian; HS 578T breast; CCRF-CEM leukemia; LOX IMVI melanoma.
Test in all cases: NCI-60 cell line screen, 48 h

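Cultured in 96-well plates, cells were exposed to test compound for 48 hours across five concentrations. TGI marks complete inhibition of growth.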 Where only a bound is given, the exact number is not on record here.

Turning to `Cn1cc2c(=O)n3ncn(-c4ccc(Br)cc4)c3nc2n1`, the TGI in the assay on M14 melanoma, in the assay with NCI-H460 lung, with DU-145 prostate, in the assay with UO-31 renal, in the assay with NCI-H226 lung and with SNB-19 CNS was over 100 µM in each case. Also, the TGI with OVCAR-5 ovarian, in the assay on NCI/ADR-RES ovarian, in the assay on HS 578T breast and with CCRF-CEM leukemia was over 100 µM in each case.

As to `C[C@@H]1C[C@@H](O)[C@@]2(O)C13CC(=O)OC(C3)[C@@H](C)[C@@]2(C)CO` (some centres not stated), the TGI with M14 melanoma, in the assay on NCI-H460 lung, in the assay on DU-145 prostate, with LOX IMVI melanoma, in the assay on UO-31 renal and in the assay on NCI-H226 lung was over 100 µM throughout. The TGI in the assay on SNB-19 CNS, in the assay on OVCAR-5 ovarian, with NCI/ADR-RES ovarian and in the assay with HS 578T breast was over 100 µM throughout.

Take `C=C(C)[C@@H]1CC[C@@H](C)[C@](O)([C@@H]2C[C@@H]([C@H](COC(=O)c3ccccc3)OC(=O)c3ccccc3)OC2=O)C1`: the TGI in the assay with M14 melanoma, with NCI-H460 lung, in the assay on DU-145 prostate, in the assay with LOX IMVI melanoma, in the assay on UO-31 renal and with NCI-H226 lung was over 100 µM throughout. Moreover, the TGI in the assay with SNB-19 CNS, in the assay with OVCAR-5 ovarian, with NCI/ADR-RES ovarian and in the assay with CCRF-CEM leukemia was over 100 µM throughout.

Turning to `COc1ccc(C2CC(=O)Oc3ccccc3O2)cc1` (configuration not stated), the TGI in the assay with NCI-H460 lung, in the assay with DU-145 prostate, with UO-31 renal, in the assay on NCI-H226 lung, in the assay with SNB-19 CNS and with NCI/ADR-RES ovarian was over 100 µM each time. For the same compound, the TGI with HS 578T breast and in the assay on CCRF-CEM leukemia was over 100 µM throughout.

As to `COC(=O)C(/C(=N/N)C(=O)Nc1cc(Cl)c(Cl)cc1Cl)c1nc2ccc(Cl)cc2[nH]c1=O` (configuration not stated), the TGI in the assay with M14 melanoma, in the assay with NCI-H460 lung, with LOX IMVI melanoma, with UO-31 renal, in the assay with NCI-H226 lung and in the assay on OVCAR-5 ovarian was over 100 µM in each case. The TGI in the assay with NCI/ADR-RES ovarian and in the assay on HS 578T breast was over 100 µM throughout.

Consider `C=CCNC(=O)/C(Cc1cc(Br)c(OC)c(Br)c1O)=N\O`, for which the TGI was determined as 23.6 µM in the assay with M14 melanoma; 15.9 µM with NCI-H460 lung; 25.1 µM in the assay with DU-145 prostate; 55 µM in the assay with LOX IMVI melanoma; 15.6 µM in the assay on UO-31 renal; 23.4 µM in the assay with NCI-H226 lung. In addition, the TGI with SNB-19 CNS is 58.9 µM; with OVCAR-5 ovarian it was 34.4 µM; in the assay with NCI/ADR-RES ovarian it was 11.4 µM; with HS 578T breast it was 4.23 µM.

On to `COc1ccc(Nc2nc(N)c(C(=O)c3ccc(OC)cc3)s2)cc1`, for which the TGI is over 54.8 µM in the assay with NCI-H460 lung; 6.94 µM in the assay with DU-145 prostate; over 100 µM with LOX IMVI melanoma; 44.3 µM in the assay with UO-31 renal; 75.8 µM with NCI-H226 lung; over 49.5 µM in the assay with SNB-19 CNS. Further, the TGI with OVCAR-5 ovarian and in the assay on NCI/ADR-RES ovarian was over 100 µM in each case.

Turning to `CN(C)c1ccc(/C=C2\N=C(N/N=C/c3ccccc3)NC2=O)cc1`, the TGI in the assay on M14 melanoma, with NCI-H460 lung, in the assay with DU-145 prostate, in the assay with UO-31 renal, in the assay on NCI-H226 lung and in the assay on SNB-19 CNS was over 100 µM throughout. The TGI in the assay with OVCAR-5 ovarian, in the assay on NCI/ADR-RES ovarian, in the assay with HS 578T breast and in the assay with CCRF-CEM leukemia was over 100 µM each time.

As for `CC1=CCC[C@@](C)(O)[C@@H]2C[C@H]3C(CSc4ccccc4)C(=O)O[C@H]3[C@@H](O2)[C@H](C)CCC1` (some centres not stated), the TGI in the assay with M14 melanoma is 26.9 µM; in the assay with NCI-H460 lung, 20.4 µM; in the assay with DU-145 prostate, 76.6 µM; in the assay on LOX IMVI melanoma, 81.6 µM; in the assay on UO-31 renal, 24.1 µM; in the assay with SNB-19 CNS, 26.7 µM. The TGI in the assay with OVCAR-5 ovarian was 30.7 µM; with HS 578T breast, 56.4 µM; in the assay on CCRF-CEM leukemia, over 100 µM.

Regarding `C/C(=N\NC(=O)/C(C#N)=C\c1ccc(N(CCC#N)CCC#N)cc1)c1ccccc1`, the TGI in the assay with M14 melanoma, in the assay with NCI-H460 lung, in the assay with DU-145 prostate, in the assay with LOX IMVI melanoma, with UO-31 renal and with NCI-H226 lung was over 10 µM throughout. The TGI in the assay on SNB-19 CNS, in the assay with NCI/ADR-RES ovarian and with HS 578T breast was over 10 µM in each case.

On to `COc1ccc(OC)c(NC(=O)C(=O)Nn2c(=S)[nH]c3ccccc3c2=O)c1`, for which the TGI in the assay on M14 melanoma, with NCI-H460 lung, in the assay on LOX IMVI melanoma, in the assay on UO-31 renal, with NCI-H226 lung and in the assay with SNB-19 CNS was over 100 µM each time. Further, the TGI in the assay with OVCAR-5 ovarian, in the assay on NCI/ADR-RES ovarian, in the assay with HS 578T breast and in the assay on CCRF-CEM leukemia was over 100 µM each time.

Take `COc1cc2c(cc1OC)C1C(O)C(OC)C=C3CC[N+](C)(C2)C31` (configuration not stated): the TGI in the assay with M14 melanoma, with NCI-H460 lung, in the assay on DU-145 prostate, in the assay with UO-31 renal, in the assay with NCI-H226 lung and in the assay with SNB-19 CNS was over 100 µM each time. Further, the TGI in the assay with OVCAR-5 ovarian, in the assay with NCI/ADR-RES ovarian, with HS 578T breast and with CCRF-CEM leukemia was over 100 µM throughout.

On to `CCOc1ccc(N/C(=C(/C(Cl)=C(/Cl)NCCO)[N+](=O)[O-])n2nnc3ccccc32)cc1`, for which the TGI was over 100 µM in the assay with M14 melanoma; over 100 µM in the assay with NCI-H460 lung; 36 µM with DU-145 prostate; 58 µM with UO-31 renal; over 100 µM in the assay with NCI-H226 lung; over 100 µM in the assay on SNB-19 CNS. In addition, the TGI with OVCAR-5 ovarian was over 100 µM; with NCI/ADR-RES ovarian, 64 µM; with HS 578T breast, 38.8 µM; in the assay with CCRF-CEM leukemia, over 100 µM.
